According to the supplement of paper PMC8671470:

What was measured:
Details in all cases: 72 h
[1] = tested on: NOMO-1; experiment: cell viability (% survival relative to DMSO control, bortezomib = 0%); higher = less cytotoxic
Outline: (§1)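 Reported values are percent survival from duplicate wells, averaged. Fifteen myeloid leukaemia cell lines were treated in 384-well plates with compounds at 1, 10, 100, 1000 or 10000 nM for 72 h at 37 °C in 5% CO2. Signals from CellTiter-Glo luminescence were scaled with vehicle as 100% and a 10 µM positive control as 0%.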

[2] = tested on: KG-1; experiment: as above
Outline: as §1

[3] = tested on: LAMA-84; experiment: as above
Outline: as §1

[4] = tested on: THP-1; experiment: as above
Outline: as §1

[5] = tested on: K-562; experiment: as above
Outline: as §1

[6] = tested on: Mono-Mac-6; experiment: as above
Outline: as §1

[7] = tested on: ML-2; experiment: as above
Outline: as §1

[8] = tested on: BV-173; experiment: as above
Outline: as §1

[9] = tested on: KU-812; experiment: as above
Outline: as §1

[10] = tested on: HL-60; experiment: as above
Outline: as §1

[11] = tested on: MV4-11; experiment: as above
Outline: as §1

[12] = tested on: HEL; experiment: as above
Outline: as §1

[13] = tested on: SHI-1; experiment: as above
Outline: as §1

[14] = tested on: KCL-22; experiment: as above
Outline: as §1

[15] = tested on: MOLM-13; experiment: as above
Outline: as §1

[16] = tested on: NOMO-1
Outline: (§2)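 For the IC50, dose–response curves were fitted with a log-logistic model. The data came from fifteen myeloid leukaemia cell lines grown in RPMI 1640 at densities in the linear growth range and incubated in 384-well plates for 72 h at 37 °C under 5% CO2. Doses were five tenfold steps from 1 to 10,000 nM in duplicate, and luminescent ATP viability was normalised to vehicle and to a positive control at 10 µM before four-parameter fitting.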

[17] = tested on: KG-1
Outline: as §2

[18] = tested on: LAMA-84
Outline: as §2

[19] = tested on: THP-1
Outline: as §2

[20] = tested on: K-562
Outline: as §2

[21] = tested on: Mono-Mac-6
Outline: as §2

[22] = tested on: ML-2
Outline: as §2

[23] = tested on: BV-173
Outline: as §2

[24] = tested on: KU-812
Outline: as §2

[25] = tested on: HL-60
Outline: as §2

[26] = tested on: MV4-11
Outline: as §2

[27] = tested on: HEL
Outline: as §2

[28] = tested on: SHI-1
Outline: as §2

[29] = tested on: KCL-22
Outline: as §2

[30] = tested on: MOLM-13
Outline: as §2

O=C(/C=C/c1ccc(O)c(O)c1)OCCc1ccccc1 [Caffeic acid phenethyl ester]
cell viability [%]
Details	1 nM	10 nM	100 nM	1000 nM	10000 nM
[1]	93.6	96.3	86.1	80.8	85.5
[2]	97.2	102	94.7	61	23.5
[3]	105	104	98.1	89.3	36.3
[4]	92.7	100	91.9	86.3	51
[5]	90.1	94.8	97.8	95.2	48.5
[6]	95	92.7	102	79.1	39.4
[7]	97.8	106	104	61.4	2.29
[8]	93.2	102	94.3	31.9	1.21
[9]	96.1	93	93.2	33.2	7.74
[10]	96.3	111	92.2	56.7	16.2
[11]	94.5	90.6	111	65	0.624
[12]	92.8	96.8	84.1	77.9	24.8
[13]	95.7	99.5	103	86.1	69
[14]	87.2	108	93.3	71.9	35.8
[15]	90.7	94.9	81.9	97.2	50.8

Details	IC50 (cell viability) [nM]
[16]	> 10000
[17]	1100
[18]	6170
[19]	6980
[20]	> 10000
[21]	3470
[22]	1260
[23]	664
[24]	649
[25]	1070
[26]	1390
[27]	4180
[28]	> 10000
[29]	2210
[30]	> 10000

CC(C)(C)c1ccc(S(=O)(=O)NCc2ccc(C(=O)Nc3cccnc3)cc2)cc1 [STF-31]
cell viability [%]
Details	1 nM	10 nM	100 nM	1000 nM	10000 nM
[1]	102	95.7	40.1	6.08	0.284
[2]	147	137	72.6	19.7	18.4
[3]	97.5	94.6	68.8	6.82	2.61
[4]	101	95.9	101	103	110
[5]	109	103	82.2	11.9	3.63
[6]	107	114	105	36.9	31
[7]	95.8	101	83.5	3.23	0.455
[8]	96.3	111	3.51	0.776	0.807
[9]	91.8	107	58.6	14.2	7.98
[10]	102	169	65.7	-0.0172	0.631
[11]	98	139	3.11	0.253	0.177
[12]	107	119	35.3	3.71	2.64
[13]	89.7	118	108	101	57.4
[14]	85	80	98.4	9.33	1.6
[15]	111	154	96.6	109	0.127

Details	IC50 (cell viability) [nM]
[16]	74
[17]	144
[18]	169
[19]	> 10000
[20]	242
[21]	548
[22]	228
[23]	38.3
[24]	109
[25]	143
[26]	45.1
[27]	73.8
[28]	> 10000
[29]	437
[30]	3570

c1cc(-c2cnn3cc(-c4ccc(OCCN5CCCCC5)cc4)cnc23)ccn1 [Dorsomorphin]
cell viability [%]
Details	1 nM	10 nM	100 nM	1000 nM	10000 nM
[1]	93.2	105	98.8	92.7	48.5
[2]	94.4	117	98.8	99.8	50.8
[3]	96.4	98.8	96.5	96.1	28.8
[4]	94.5	101	101	96.2	55.6
[5]	94.2	97.4	93.3	92.1	93.5
[6]	95.3	101	103	42.8	6.23
[7]	95.2	113	96.7	88.3	44.1
[8]	89.8	108	99.9	90.1	53.2
[9]	91.9	97.1	97.2	85.9	1.77
[10]	113	110	94.9	97.1	93.9
[11]	89.9	117	97.4	99.8	89.1
[12]	87.1	105	99.4	103	72.6
[13]	104	102	95.6	103	113
[14]	108	106	102	94.6	37.7
[15]	77.6	78.5	97.5	108	97.8

Details	IC50 (cell viability) [nM]
[16]	6430
[17]	> 10000
[18]	6490
[19]	> 10000
[20]	> 10000
[21]	811
[22]	5240
[23]	7280
[24]	2600
[25]	> 10000
[26]	> 10000
[27]	> 10000
[28]	> 10000
[29]	6790
[30]	> 10000
